US20070202166A1, “Method for increasing the rate and consistency of bioavailability of supplemental dietary ingredients” (priority 2006, published 2007)
Entries after “also recorded” stand apart in the source; their conditions may differ.

Key:
Format in all cases: physicochemical
[1] = Time to dissolve in stirred water, estimated by visual inspection; details: for Time taken to dissolve: 100 mL water, constant stirring
Description: In order to determine the effect of fine-milling on the dissolution rate, initial testing was performed to examine the rate of dissolution of common supplemental dietary ingredients. For the purposes of this disclosure, the term “regular” as used herein makes reference to non-fine-milled particles. 100 mL of water was placed into a 250 mL beaker and a magnetic stirrer bar was added to the beaker. The beaker was then placed on a magnetic stirrer was set to constant speed. […] The time required to dissolve was estimated by visual inspection. Equal amounts of the fine-milled ingredients were then added to the water and the time required to dissolve was estimated by visual inspection.

[2] = Solubility test: powder added to stirred water until saturated, gravity filtered, dry residue on filter paper weighed; details: Whatman 41 filter paper, particle retention 20-25 μm
Description: In order to test the capacity of fine-milling to improve the rate bioavailability of substances, a simple test was performed. The test was conceived to mimic various elements involved in the processes of oral administration of a nutritional supplement. The key parameters involved were rate of dissolution and solubility, as it is understood that an ingested nutrient must be dissolved or reduced to a bio-transportable size in order to be utilized biochemically by the body.
The rates of dissolution and solubility of regular common nutritional supplements were compared to fine-milled versions within a fixed time. […] 100 mL of water was added to a 250 mL beaker and a magnetic stirring bar was placed in the beaker. The beaker was placed on a magnetic stirrer and stirred with low speed. 1 g of a given supplemental dietary ingredient powder was added incrementally to the beaker with the stirring speed constant until the solution visually appeared saturated. The solution was filtered by gravity through a pre-weighed filter paper (Whatman 41, particle retention 20-25 μm). […]
The ‘Fold Change’ represents the change in the amount of substance unable to pass through the filter as calculated by the amount of unfiltered regular substance divided by the amount of unfiltered fine-milled substance and represents the potential theoretical improvement in bioavailability.

[3] = Kinetic dissolution experiment: 1 g in 50 mL water, filtered at 1 and 5 minutes
Description: In order to expand on the results of the aforenoted experiments, a kinetic experiment was conducted to examine the change in the dissolution rate over short time periods.
1 g of sample was added to 50 mL water in a flask with a magnetic stir bar on a stirrer set at constant speed. Separate samples were filtered at 1 and 5 minutes. The pre-weighed filter papers (Whateman 41, particle retention 20-25 μm) were allowed to dry and the amount of sample remaining on the filter paper was determined.

With `CN(CC(=O)O)C(=N)N.O` [Creatine Monohydrate] the “Time taken to dissolve” value ([1]; Fine-milled powder, same amount as regular) was under 5 min, the “Rate of dissolving, fine-milled compared with regular (in words)” value ([1]; Monohydrate) was “appeared to dissolved at the same rate in both the fine-milled and regular formats; also recorded: did not display a difference dependent on particle size” and the “Time taken to dissolve” value ([1]; Regular (non-milled) powder) was under 5 min. For the same compound, the “Dry Powder On Filter” value ([2]; Fine-milled powder) was 0.01 g, the “Dry Powder On Filter” value ([2]; Regular powder) was 0.19 g and the “weight of unfiltered sample” value ([3]; Fine-milled, 1-minute interval, Monohydrate) was 0.33 g. For the same compound, the “weight of unfiltered sample” value ([3]; Fine-milled, 1-minute interval, listed as creatine, Monohydrate) was 0.32 g, the “weight of unfiltered sample” value ([3]; Fine-milled, 5-minute interval) was 0.27 g and the “weight of unfiltered sample” value ([3]; Regular, 1-minute interval, listed as Creatine monohydrate, Monohydrate) was 0.32 g. The “weight of unfiltered sample” value ([3]; Regular, 1-minute interval, listed as creatine, Monohydrate) was 0.33 g and the “weight of unfiltered sample” value ([3]; Regular, 5-minute interval) was 0.40 g.
